From US20230157996A1, “SMALL-MOLECULE INHIBITOR TARGETING EB VIRUS NUCLEAR ANTIGEN PROTEIN, PREPARATION METHOD AND USE THEREOF” (priority 2020, published 2023)

The compounds below were run on C666-1 cells (assay: C666-1 cell viability single concentration (50 μM) inhibition rate (Resazurin)). Conditions: 50 μM compound, 72 hours, C666-1 cells.
Format: cell-based
Summary of the method: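 Resazurin fluorescence (560/590 nm, 3 h development) gave the proliferation inhibition rate, normalised to DMSO-treated and cell-free blank wells. Compound was tested at a single 50 μmol/L final concentration on C666-1 cells for 72 h at 37° C, with duplicate wells, after 24 h seeding.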

Compound | C666-1 cell viability single concentration (50 μM) inhibition rate, Ratio* (Inh %)
COC(=O)c1cccc(N2CC(Oc3ccccc3)C2)c1-n1cccc1 [Example 257, Methyl 3-((3-phenoxy)azetidin-1-yl)-2-(1H-pyrrol-1-yl)benzoate] | ++ (10%-30% ++)

Same assay, conditions: Homo sapiens, C6661, 72 h, 50 μM compound, 72 hours, C666-1 cells; read-out: C666-1 cell viability single concentration (50 μM) inhibition rate, Ratio* (Inh %)

Compound | inhibition at 50 µM
COC(=O)c1cccc(N2CC(Oc3ccc(CNC(=O)NC4CC4)cc3)C2)c1-n1cccc1 [Example 242, Methyl 3-(3-(4-((3-cyclopropylureido)methyl)phenoxy)azetidin-1-yl)-2-(1H-pyrrol-1-yl)benzoate] | 10 to 30%
COC(=O)c1cccc(N2CC(Oc3ccc(COc4cccnc4)cc3)C2)c1-n1cccc1 [Example 243, Methyl 3-(3-(4-((pyridin-3-yl-oxy)methyl)phenoxy)azetidin-1-yl)-2-(1H-pyrrol-1-yl)benzoate] | > 50%
O=C(O)c1cccc(N2CC(Oc3ccc(COc4cccnc4)cc3)C2)c1-n1cccc1 [Example 244, 3-(3-(4-((pyridin-3-yl-oxy)methyl)phenoxy)azetidin-1-yl)-2-(1H-pyrrol-1-yl)benzoic acid] | 30 to 50%
COC(=O)c1cccc(N2CC(Oc3ccc(COc4ccc(F)cc4)cc3)C2)c1-n1cccc1 [Example 245, Methyl 3-(3-(4-((4-fluorophenoxy)methyl)phenoxy)azetidin-1-yl)-2-(1H-pyrrol-1-yl)benzoate] | < 10%
O=C(O)c1cccc(N2CC(Oc3ccc(COc4ccc(F)cc4)cc3)C2)c1-n1cccc1 [Example 246, 3-(3-(4-((4-fluorophenoxy)methyl)phenoxy)azetidin-1-yl)-2-(1H-pyrrol-1-yl)benzoic acid] | < 10%
COC(=O)c1cccc(N2CC(Oc3ccc(COc4cccc(F)c4)cc3)C2)c1-n1cccc1 [Example 247, Methyl 3-(3-(4-((3-fluorophenoxy)methyl)phenoxy)azetidin-1-yl)-2-(1H-pyrrol-1-yl)benzoate] | 10 to 30%
O=C(O)c1cccc(N2CC(Oc3ccc(COc4cccc(F)c4)cc3)C2)c1-n1cccc1 [Example 248, 3-(3-(4-((3-fluorophenoxy)methyl)phenoxy)azetidin-1-yl)-2-(1H-pyrrol-1-yl)benzoic acid] | < 10%
COC(=O)c1cccc(N2CC(Oc3ccc(COc4cccc(C(F)(F)F)c4)cc3)C2)c1-n1cccc1 [Example 249, Methyl 3-(3-(4-((3-(trifluoromethyl)phenoxy)methyl)phenoxy)azetidin-1-yl)-2-(1H-pyrrol-1-yl)benzoate] | < 10%
O=C(O)c1cccc(N2CC(Oc3ccc(COc4cccc(C(F)(F)F)c4)cc3)C2)c1-n1cccc1 [Example 250, 3-(3-(4-((3-(trifluoromethyl)phenoxy)methyl)phenoxy)azetidin-1-yl)-2-(1H-pyrrol-1-yl)benzoic acid] | 10 to 30%
COC(=O)c1cccc(N2CC(Oc3ccc(CO)c(C)c3)C2)c1-n1cccc1 [Example 251, Methyl 3-(3-(4-(hydroxymethyl)-3-methylphenoxy)azetidin-1-yl)-2-(1H-pyrrol-1-yl)benzoate] | > 50%
Cc1cc(OC2CN(c3cccc(C(=O)O)c3-n3cccc3)C2)ccc1CO [Example 252, 3-(3-(4-(hydroxymethyl)-3-methylphenoxy)azetidin-1-yl)-2-(1H-pyrrol-1-yl)benzoic acid] | < 10%
COC(=O)c1cccc(N2CC(Oc3ccc(N)cc3)C2)c1-n1cccc1 [Example 253, Methyl 3-(3-(4-aminophenoxy)azetidin-1-yl)-2-(1H-pyrrol-1-yl)benzoate] | 10 to 30%
Nc1ccc(OC2CN(c3cccc(C(=O)O)c3-n3cccc3)C2)cc1 [Example 254, 3-(3-(4-aminophenoxy)azetidin-1-yl)-2-(1H-pyrrol-1-yl)benzoic acid] | < 10%
COC(=O)c1cccc(N2CC(Oc3ccccc3N)C2)c1-n1cccc1 [Example 255, Methyl 3-(3-(2-aminophenoxy)azetidin-1-yl)-2-(1H-pyrrol-1-yl)benzoate] | > 50%
Nc1ccccc1OC1CN(c2cccc(C(=O)O)c2-n2cccc2)C1 [Example 256, 3-(3-(2-aminophenoxy)azetidin-1-yl)-2-(1H-pyrrol-1-yl)benzoic acid] | > 50%
COC(=O)c1cccc(N2CC(Oc3cccnc3)C2)c1-n1cccc1 [Example 259, Methyl 3-(3-(pyridin-3-yloxy)azetidin-1-yl)-2-(1H-pyrrol-1-yl)benzoate] | 10 to 30%
O=C(O)c1cccc(N2CC(Oc3cccnc3)C2)c1-n1cccc1 [Example 260, 3-(3-(pyridin-3-yloxy)azetidin-1-yl)-2-(1H-pyrrol-1-yl)benzoic acid] | < 10%
COC(=O)c1cccc(N2CC(Oc3ccc(-c4csc(NS(C)(=O)=O)n4)cc3)C2)c1-n1cccc1 [Example 261, Methyl 3-(3-(4-(2-(methylsulfonamido)thiazol-4-yl)phenoxy)azetidin-1-yl)-2-(1H-pyrrol-1-yl)benzoate] | < 10%
CS(=O)(=O)Nc1nc(-c2ccc(OC3CN(c4cccc(C(=O)O)c4-n4cccc4)C3)cc2)cs1 [Example 262, 3-(3-(4-(2-(methylsulfonamido)thiazol-4-yl)phenoxy)azetidin-1-yl)-2-(1H-pyrrol-1-yl)benzoic acid] | < 10%
COC(=O)c1cccc(N2CC(Oc3ccc(C(=O)N4CCOCC4)cc3)C2)c1-n1cccc1 [Example 265, Methyl 3-(3-(4-(morpholinyl-4-carbonyl)phenoxy)azetidin-1-yl)-2-(1H-pyrrol-1-yl)benzoate] | 10 to 30%

Compound | inhibition at 50 µM
COC(=O)c1cccc(N2CC(Oc3ccc(C(=O)Nc4ccc(F)cc4)cc3)C2)c1-n1cccc1 [Example 267, Methyl 3-(3-(4-((4-fluorophenyl)carbamoyl)phenoxy)azetidin-1-yl)-2-(1H-pyrrol-1-yl)benzoate] | < 10%
O=C(Nc1ccc(F)cc1)c1ccc(OC2CN(c3cccc(C(=O)O)c3-n3cccc3)C2)cc1 [Example 268, 3-(3-(4-((4-fluorophenyl)carbamoyl)phenoxy)azetidin-1-yl)-2-(1H-pyrrol-1-yl)benzoic acid] | < 10%
COC(=O)c1cccc(-c2cn(-c3ccc(CO)cc3)nn2)c1-c1ccc2cc[nH]c2c1 [Example 269, Methyl 3-(1-(4-(hydroxymethyl)phenyl)-1H-1,2,3-triazol-4-yl)-2-(1H-indol-6-yl)benzoate] | 30 to 50%
COC(=O)c1cccc(C#CN2Cc3ccccc3S2(=O)=O)c1-n1cccc1 [Example 270] | < 10%
COC(=O)c1cccc(C#CN(Cc2ccccc2)S(=O)(=O)c2ccc(C)cc2)c1-n1cccc1 [Example 271, Methyl 3-(((N-benzyl-4-methylphenyl)sulfonamido)ethynyl)-2-(1H-pyrrol-1-yl)benzoate] | > 50%
COC(=O)c1cccc(C2CC2c2ccccc2)c1-n1cccc1 (centres unmarked) [Example 272, Methyl 3-(2-phenylcyclopropyl)-2-(1H-pyrrol-1-yl)benzoate] | 10 to 30%
COc1ccc(C(O)C23CC(c4cccc(C(=O)O)c4)(C2)C3)cc1 (centres unmarked) [Example 273, 3-(3-(hydroxyl(4-methoxyphenyl)methyl)bicyclo[1. 1.1]pentan-1-yl)benzoic acid] | < 10%
COC(=O)c1cccc(N2CC3(CN(c4ccccc4)C3)C2)c1-n1cccc1 [Example 274, Methyl 3-(6-phenyl-2,6-diazaspiro[3.3]heptan-2-yl)-2-(1H-pyrrol-1-yl)benzoate] | < 10%
COC(=O)c1cccc(N2CC3(CN(c4ccccc4N)C3)C2)c1N [Example 275, Methyl 2-amino-3-(6-(2-aminophenyl)-2,6-diazaspiro[3.3]heptan-2-yl)benzoate] | 10 to 30%
O=C(O)c1cccc(N2CC(Oc3ccc(CO)cc3)C2)c1-c1ccco1 [Example 276] | < 10%
COC(=O)c1cccc(N2CC(Oc3ccc(CO)cc3)C2)c1-c1ccc2ccoc2c1 [Example 277] | 10 to 30%
N#Cc1cccc(-c2c(C(=O)O)cccc2N2CC(Oc3ccc(CO)cc3)C2)c1 [Example 278] | 10 to 30%
COC(=O)c1cccc(N2CC(Oc3ccc(CO)cc3)C2)c1-c1cccc(C(=O)O)c1 [Example 279] | 10 to 30%
CS(=O)(=O)Nc1cccc(-c2c(C(=O)O)cccc2N2CC(Oc3ccc(CO)cc3)C2)c1 [Example 280] | < 10%
N#Cc1cc(-c2c(C(=O)O)cccc2N2CC(Oc3ccc(CO)cc3)C2)ccc1F [Example 281, 3′-cyano-4′-fluoro-6-(3-(4-(hydroxymethyl)phenoxy)azetidin-1-yl)-[1,1′-biphenyl]-2-formic acid] | < 10%
COC(=O)c1cccc(N2CC(Oc3cccc(C(=O)O)c3)C2)c1N [Example 282, Methyl 2-amino-3-(3-(3-carboxylphenoxy)azetidin-1-yl)benzoate] | < 10%
COC(=O)c1cccc(N2CC(Oc3ccc(CNS(=O)(=O)c4ccc(C)cc4)cc3)C2)c1-n1cccc1 [Example 283, Methyl 3-(3-(4-(((4-methylphenyl)sulfonamido)methyl)phenoxy)azetidin-1-yl)-2-(1H-pyrrol-1-yl)benzoate] | > 50%
COC(=O)c1cccc(N2CC(Oc3cc(F)nc(F)c3)C2)c1-n1cccc1 [Example 284, Methyl 3-(3-((2,6-difluoropyridin-4-yl)oxy)azetidin-1-yl)-2-(1H-pyrrol-1-yl)benzoate] | < 10%
O=C(O)c1cccc(N2CC(Oc3cc(F)nc(F)c3)C2)c1-n1cccc1 [Example 285, 3-(3-((2,6-difluoropyridin-4-yl)oxy)azetidin-1-yl)-2-(1H-pyrrol-1-yl)benzoic acid] | < 10%
COC(=O)c1cccc(N2CC(Oc3ccc([N+](=O)[O-])cc3)C2)c1-n1cccc1 [Example 286, Methyl 3-(3-(4-nitrophenoxy)azetidin-1-yl)-2-(1H-pyrrol-1-yl)benzoate] | 10 to 30%
